Measured values taken from EPA's ToxValDB 9.5.
In brackets after ≈: the same amount, converted by molar mass. Several values for one entry are separate records, joined by “and”; a condition that tells them apart may be missing. Equal entries are not always repeated. Blank lines part the entries; values can stand above or below the compound they belong to.

Assays:
Mus musculus [1] = settings: uterotrophic; duration: 3 days; injection; subcutaneous; Active
Rattus norvegicus [2] = settings: uterotrophic, Active
Oryctolagus sp. [3] = settings: uterotrophic; injection; subcutaneous; Active
Homo sapiens [4] = settings: duration: 10 days, oral, F, Withdrawal bleeding
Rattus norvegicus [5] = settings: for LC50 / LD50: acute
Rattus norvegicus [6] = tested on: Rattus norvegicus
Mus musculus [7] = settings: subchronic; duration: 13 weeks; inhalation; intermittent; Nasal mucosa: Inflammation
Sus scrofa = settings: chronic; duration: 105 days; oral; diet; Not specified; Gastrointestinal system: Disturbance
Homo sapiens [8] = settings: clinical; duration: 30 minutes; inhalation; M/F; respiratory
Rattus norvegicus [9] = tested on: Rattus norvegicus; remark: listed apart in the source
Canidae = settings: chronic, duration: 1 years, oral, diet, Dog Other, Decreased weight gain in males and neurologic findings in both sexes
Perdix perdix = settings: oral
Rattus norvegicus [10] = settings: repeat dose other; oral
Rattus norvegicus [11] = settings: chronic; duration: 2 years; oral; diet; Blood vessel: Aneurysms + Kidney: Glomerulonephrosis + Whole body: Decreased weight gain
Oryctolagus sp. [12] = settings: reproduction developmental; duration: 22 days; oral; gavage; M/F; New Zealand; neurological
Rattus norvegicus [13] = settings: subchronic; duration: 63 days; oral; gavage; M; Sprague-Dawley; Clinical Observation: Piloerection SalivationMatted fur + Body Weight Changes: decrease
Oryctolagus sp. [14] = assay: LD0; higher = less toxic; settings: acute; dermal; occlusive; New Zealand
Rattus norvegicus [15] = assay: LC0; higher = less toxic; settings: acute; Inhalation; Wistar
Mus musculus [16] = settings: chronic; duration: 2 years; oral; diet; M/F; Tif MAG; Uterine pathology
Gallus sp. [17] = settings: subchronic; duration: 90 days; oral; F; ataxia, delayed neurotoxicity and weight loss
Gallus sp. [18] = settings: subchronic; duration: 3 months; oral; capsule; Nervous system: Ataxia + Nervous system: Delayed neurotoxicity + Whole body: Decreased weight
Rattus norvegicus [19] = assay: LD40; higher = less toxic; settings: acute; oral; gavage; Wistar
Bacteria = settings: In vitro / microbiological growth inhibition; Growth inhibition
Mus musculus [20] = settings: for LD50 / LC50: acute
Oryctolagus sp. [21] = tested on: Oryctolagus sp.
Mus musculus [22] = assay: LD10; higher = less toxic; settings: acute; oral; BALB/cAnCr
Cavia porcellus [23] = settings: chronic; duration: 26 weeks; inhalation; M/F; Guinea Pig; methemoglobin increase, spleen toxicity
Mus musculus [24] = settings: chronic; duration: 26 weeks; inhalation; M/F; methemoglobin increase, spleen toxicity
Rattus norvegicus [25] = settings: oral, M/F
Guinea Pig, Mouse, Rat = settings: subchronic; inhalation; intermittent; Spleen: Pathology
Cavia porcellus [26] = settings: Guinea Pig
Mus musculus [27] = assay: LC100; higher = less toxic; settings: acute; inhalation
Cavia sp. = settings: acute; inhalation; FTD Hartley
Monkey [28] = settings: subchronic; duration: 3 months; inhalation; Cynomolgus
Monkey [29] = settings: chronic; oral; F; Cyanomolgus; Altered serum hormones & menstrual cyclicity
Mammals [30] = settings: acute; Inhalation
Cavia porcellus [31] = assay: LD100; higher = less toxic; settings: acute; oral; Guinea Pig
Rattus norvegicus [32] = assay: LD100; higher = less toxic; settings: acute
Mammals [33] = assay: LD100; higher = less toxic; settings: acute; Oral
[34] = subchronic, inhalation, M, nasal lesions of the olfactory mucosa
[35] = chronic, duration: 2 years, oral, diet, F, increased incidence of marked progressive glomerulonephrosis and blood vessel aneurysms in males + Reduced body weight gain in males and …
[36] = short-term, duration: 4 weeks, inhalation, M, Sprague-Dawley
[37] = short-term, duration: 4 weeks, inhalation, Sprague-Dawley
[38] = developmental, duration: 10 days, oral, gavage, Crj:CD
[39] = developmental, duration: 13 days, oral, gavage, New Zealand
[40] = reproduction developmental, duration: 13 days, oral, gavage, F, New Zealand
[41] = subchronic, duration: 7 weeks, inhalation
[42] = subchronic, duration: 35 days, inhalation
[43] = subchronic, duration: 35 days, inhalation, ICR
[44] = subchronic, duration: 90 days, oral, gavage, Albino- not specified
[45] = subchronic, oral, M/F, reduced body weight

LEL (Mus musculus [1]): 0.087 mg | LEL (gamma) (Mus musculus [1]): 30 | LEL (Rattus norvegicus [2]; duration: 2 days, oral): 0.5 mg/kg-day | LEL (Rattus norvegicus [2]; duration: 4 days, injection, intraperitoneal): 50 mg/kg-day | LEL (Rattus norvegicus [2]; duration: 14 days, oral): 10 mg | LEL (Oryctolagus sp. [3]): 1 mg/day
SMILES: CC(=O)[C@H]1CC[C@H]2[C@@H]3CCC4=CC(=O)CC[C@]4(C)[C@H]3CC[C@]12C [Progesterone]
LOEL (Homo sapiens [4]; Clinical): 3.3 mg/kg-day | LOEL (Homo sapiens [4]; clinical): 3.3 mg/kg-day

SMILES: S [Hydrogen sulfide]
LC50 (Rattus norvegicus [5]; inhalation, Sprague-Dawley): 619 mg/m3 and ≥ 580 mg/m3 and ≤ 659 mg/m3 | NOAEL (Rattus norvegicus [5]; reproduction developmental, duration: 18 days, inhalation, F, Sprague-Dawley): 112 mg/m3 | NOAEL (Rattus norvegicus [5]; reproduction developmental, inhalation, Sprague-Dawley, generation: F0): 112 mg/m3 | NOAEL (Rattus norvegicus [5]; reproduction developmental, inhalation, Sprague-Dawley, generation: F1): 112 mg/m3 | LOAEL (Rattus norvegicus [6]; [34]): 41.7 mg/m3 | NOAEL (Rattus norvegicus [6]; [34]): 13.9 mg/m3 | NOAEL (Mus musculus [7]): 42 mg/m3 | NOAEL (Sus scrofa): 3.1 mg/kg-day | LOAEL (Homo sapiens [8]): 2.79 mg/m3 | NOAEL (Rattus norvegicus [9]; subchronic, duration: 10 weeks, inhalation, M, Sprague-Dawley, respiratory): 13.9 mg/m3

SMILES: O=S1OCC2C(CO1)C1(Cl)C(Cl)=C(Cl)C2(Cl)C1(Cl)Cl (stereo not drawn) [Endosulfan]
LOAEL (Rattus norvegicus [6]; [35]): 3.8 mg/kg-day | NOAEL (Rattus norvegicus [6]; [35]): 0.7 mg/kg-day | LOAEL (Rattus norvegicus [6]; chronic, duration: 2 years, oral, diet, M, increased incidence of marked progressive glomerulonephrosis and blood vessel aneurysms in males + Reduced body weight gain in males and …): 2.9 mg/kg-day | NOAEL (Rattus norvegicus [6]; chronic, duration: 2 years, oral, diet, M, reduced body weight gain (males) and females increased incidence of marked progressive glomerulonephrosis and blood vessel aneurysms (males)): 0.6 mg/kg-day | LOAEL (Canidae; F): 1.9 mg/kg-day | NOAEL (Canidae; F): 0.57 mg/kg-day | LOAEL (Canidae; M): 2.1 mg/kg-day | NOAEL (Perdix perdix): 10 mg/kg-day | NOAEL (Rattus norvegicus [10]): 0.15 mg/kg-day | NOAEL (Rattus norvegicus [11]): 1.17 mg/kg-day | NOAEL (Rattus norvegicus [9]; chronic, duration: 22 weeks, oral, diet, M, Wistar, immunological): 0.45 mg/kg-day | NOAEL (Oryctolagus sp. [12]): 0.7 mg/kg-day

SMILES: Nc1ccccc1[N+](=O)[O-] [2-Nitrobenzenamine]
NOAEL (Rattus norvegicus [13]): 50 mg/kg-day | NOAEL (Rattus norvegicus [5]; developmental, duration: 6 days, oral, gavage, Sprague-Dawley): 600 mg/kg-day | NOAEL (Rattus norvegicus [5]; reproduction developmental, duration: 6 days, oral, gavage, F, Sprague-Dawley): 100 mg/kg-day | LOAEL (Rattus norvegicus [5]; [36]): 93 mg/m3 | NOAEL (Rattus norvegicus [5]; [36]): 9.8 mg/m3 | LOAEL (Rattus norvegicus [5]; [37]): 73 mg/m3 | NOAEL (Rattus norvegicus [5]; [37]): 30 mg/m3 | NOAEL (Rattus norvegicus [5]; short-term, duration: 14 days, oral, gavage, Sprague-Dawley): ≥ 100 mg/kg-day | LD0 (Oryctolagus sp. [14]): > 7940 mg/kg | LC0 (Rattus norvegicus [15]): > 2530 mg/m3

SMILES: O=C(NC(=O)c1c(F)cccc1F)Nc1ccc(Cl)c(Oc2ncc(C(F)(F)F)cc2Cl)c1 [Fluazuron]
NOEL (Mus musculus [16]): 4.3 mg/kg-day

SMILES: CCCCSP(=O)(SCCCC)SCCCC [Tribufos]
LC50 (Rattus norvegicus [5]; Inhalation, Sprague-Dawley): ≥ 2460 mg/m3 and ≤ 4650 mg/m3 | LOAEL (Gallus sp. [17]): 0.5 mg/kg-day | NOEL (Gallus sp. [17]): 0.1 mg/kg-day | NOEL (Gallus sp. [18]): 0.1 mg/kg-day | NOAEL (Rattus norvegicus [9]; reproduction developmental, duration: 364 days, oral, diet, M, Sprague-Dawley, neurological): 0.28 mg/kg-day | NOAEL (Rattus norvegicus [9]; subchronic, duration: 13 weeks, inhalation, head only, M/F, Wistar, neurological): 2.43 mg/m3

SMILES: CC(C)(C)C(=O)CCc1ccc(Cl)cc1 [1-(4-Chlorophenyl)-4,4-dimethyl-pentan-3-one]
LC50 (Rattus norvegicus [5]; Inhalation, Wistar): > 2940 mg/m3 | LD50 (Rattus norvegicus [5]; dermal, occlusive, Wistar): > 5000 mg/kg | LD50 (Rattus norvegicus [5]; oral, gavage, Wistar): 4750 mg/kg and > 5000 mg/kg and 4820 mg/kg | LD40 (Rattus norvegicus [19]): 3140 mg/kg

SMILES: CC1(C)S[C@@H]2[C@H](NC(=O)[C@H](N)c3ccc(O)cc3)C(=O)N2[C@H]1C(=O)O [Amoxicillin]
NOAEC (Bacteria): 0.1 µg/mL

SMILES: CNC=O [N-Methylformamide]
LD50 (Mus musculus [20]; oral, BALB/cAnCr): 2600 mg/kg | LD50 (Rattus norvegicus [5]; oral): 4000 mg/kg | LOAEL (Rattus norvegicus [5]; [38]): 75 mg/kg-day | NOAEL (Rattus norvegicus [5]; [38]): 10 mg/kg-day | NOAEL (Rattus norvegicus [5]; reproduction developmental, duration: 10 days, inhalation, F, Crl: CD BR): 36.2 mg/m3 | NOAEL (Rattus norvegicus [5]; short-term, duration: 2 weeks, inhalation, M, Crl:CD(SD)): 0.12 mg/L | LOAEL (Oryctolagus sp. [21]; [39]): 50 mg/kg-day | NOAEL (Oryctolagus sp. [21]; [39]): 10 mg/kg-day | LOAEL (Oryctolagus sp. [21]; [40]): 50 mg/kg-day | NOAEL (Oryctolagus sp. [21]; [40]): 10 mg/kg-day | LD10 (Mus musculus [22]): 1800 mg/kg

SMILES: Nc1ccccc1 [Aniline]
NOAEL (Rattus norvegicus [5]; short-term, duration: 2 weeks, inhalation): 38.1 mg/m3 | NOAEL (Cavia porcellus [23]): 19 mg/m3 | NOAEL (Mus musculus [24]): 19 mg/m3 | NOAEL (Rattus norvegicus [6]; chronic, duration: 26 weeks, inhalation, M/F, methemoglobin increase, spleen toxicity): 19 mg/m3 | LOAEL (Rattus norvegicus [6]; short-term, inhalation, M, Mild spleen toxicity 2-Week): 64.7 mg/m3 | LOAEL (Rattus norvegicus [25]; chronic, duration: 104 weeks, diet, Crl:CD1, Immune, Hematologic): 7 mg/kg-day | NOAEL (Guinea Pig, Mouse, Rat): 19 mg/m3

SMILES: CCOCC [Diethyl ether]
NOAEL (Cavia porcellus [26]; [41]): 6.2 mg/L | LOAEL (Cavia porcellus [26]; [42]): 30 mg/L | NOAEL (Cavia porcellus [26]; [42]): 3 mg/L | LC50 (Mus musculus [20]; inhalation): 130 mg/L (≈ 1750 µM) | LC50 (Mus musculus [20]; inhalation, C3H/HeCr): 98200 mg/m3 and 94900 mg/m3 | LC50 (Mus musculus [20]; inhalation, C57BL/6): 199000 mg/m3 and 182000 mg/m3 | LD50 (Mus musculus [20]; injection, Intraperitoneal): 2420 mg/kg | LD50 (Mus musculus [20]; injection, intravenous): 996 mg/kg | LOAEL (Mus musculus [20]; [43]): 30 mg/L | NOAEL (Mus musculus [20]; [43]): 3 mg/L | LC50 (Rattus norvegicus [5]; oral, Sprague-Dawley): 1710 mg/kg | NOAEL (Rattus norvegicus [5]; subchronic, duration: 7 weeks, inhalation, Wistar): 6.2 mg/L | NOAEL (Rattus norvegicus [5]; subchronic, duration: 35 days, inhalation, Sprague-Dawley): 30 mg/L | LOAEL (Rattus norvegicus [5]; [44]): 2000 mg/kg-day | NOAEL (Rattus norvegicus [5]; [44]): 500 mg/kg-day | NOAEL (Oryctolagus sp. [21]; [41]): 6.2 mg/L | LOAEL (Rattus norvegicus [6]; [45]): 2000 mg/kg-day | NOAEL (Rattus norvegicus [6]; [45]): 500 mg/kg-day | NOAEL (Rattus norvegicus [25]; subchronic, duration: 90 days, gavage, Sprague-Dawley, Whole Body Effects): 500 mg/kg-day | LC100 (Mus musculus [27]): 128 mg/L

SMILES: [C-]#[O+] [Carbon monoxide]
LC50 (Cavia sp.): 2070 mg/m3 and ≥ 1830 mg/m3 and ≤ 2240 mg/m3 | LOAEL (Monkey [28]): 115 mg/m3 | LC50 (Mus musculus [20]; inhalation, NIH/Nmri Swiss albino): 2070 mg/m3 and ≥ 1830 mg/m3 and ≤ 2240 mg/m3 | LOAEL (Mus musculus [20]; reproduction developmental, duration: 7 days, inhalation, CD1, generation: F1): 143 mg/m3

SMILES: C=C1C[C@H]2[C@@H]3C=C(C)C4=CC(=O)CC[C@]4(C)[C@H]3CC[C@]2(C)[C@@]1(OC(C)=O)C(C)=O [Melengestrol acetate]
LOEL (Monkey [29]): 0.005 mg/kg-day

SMILES: C1COCCN1 [Morpholine]
LD50 (Cavia porcellus [26]; acute, oral): 900 mg/kg | LD50 (Mus musculus [20]; oral): 525 mg/kg | LD50 (Rattus norvegicus [5]; inhalation): ≥ 7.8 mg/L and ≤ 8.2 mg/L | LC50 (Mammals [30]): 12 mg/L (≈ 138 µM) | LD100 (Cavia porcellus [31]): 100 mg/kg | LD100 (Rattus norvegicus [32]; injection, Intraperitoneal): 400 mg/kg | LD100 (Rattus norvegicus [32]; oral): 100 mg/kg | LD100 (Mammals [33]): 1220 mg/kg
